# Laboratory results: patent US20120190669A1, “OXINDOLE COMPOUNDS” (CYLENE PHARMACEUTICALS, INC., priority 2008, published 2012)
# Target: recombinant human PIM2 (Homo sapiens, UniProt Q9P1W9)
# Assay: PIM-2 assay (radiometric)
# Type: biochemical
# Conditions: Table 6; 15 μm ATP; read-out: PIM2: IC50 (15 μm ATP)
# Method: Test compounds dissolved and diluted in DMSO ([…]) were added to a reaction mixture comprising […] of 5× Reaction Buffer (40 mM MOPS pH 7.0, 5 mM EDTA), […] of recombinant human PIM2 solution (4 ng PIM-2 dissolved in dilution buffer (20 mM MOPS pH 7.0; EDTA 1 mM; 5% Glycerol; 0.01% Brij 35; […]; […] 2-mercaptoethanol; 1 mg/ml BSA)) and 8 ul of water. Reactions were initiated by the addition of 10 ul of ATP Solution (49% (15 mM MgCl2; 75 uM ATP) 1% ([γ-33P]ATP: Stock 1 mCi/100 μl; 3000 Ci/mmol (Perkin Elmer)) and 10 ul of substrate peptide solution ([…], dissolved in water at a concentration of 1 mM), Reactions were maintained for 10 min at 30° C. The reactions were quenched with 100 ul of 0.75% Phosphoric acid, then transferred to and filtrered through a Phosphocellulose filter plate (Millipore, MSPH-N6B-50). After washing each well 4 times with 0.75% Phosphoric acid, scintillation fluid (20 uL) was added to each well and the residual radioactivity was measured using a Wallac […] counter.
# Sequence of recombinant human PIM2 (Q9P1W9 whole entry): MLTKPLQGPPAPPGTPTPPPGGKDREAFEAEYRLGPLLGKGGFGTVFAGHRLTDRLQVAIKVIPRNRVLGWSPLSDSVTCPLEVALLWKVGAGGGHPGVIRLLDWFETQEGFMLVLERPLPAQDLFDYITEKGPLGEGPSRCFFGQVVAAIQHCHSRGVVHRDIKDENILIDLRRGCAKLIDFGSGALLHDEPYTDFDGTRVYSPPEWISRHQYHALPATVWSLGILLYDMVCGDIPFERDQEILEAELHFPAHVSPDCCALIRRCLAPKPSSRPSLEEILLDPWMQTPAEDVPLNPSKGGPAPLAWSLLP
row,IC50 [nM],SMILES
1,< 1000,CCN(CC)CCNC(=O)c1ccc(-c2ccc(/C=C3/C(=O)Nc4ccc(Cl)cc43)o2)cc1 [drawing 260]
2,< 1000,C/C(=C1\C(=O)Nc2ccc(Cl)cc21)c1ccc(-c2ccc(C(=O)N3CCCN(C)CC3)cc2)o1 [drawing 258]
3,< 1000,CN1CCCN(C(=O)c2ccc(-c3ccc(/C=C4/C(=O)Nc5ccc(Cl)cc54)o3)cc2)CC1 [drawing 259]

# Tested on: PC-3 human prostatic cancer cells
# Assay: Alamar Blue cell proliferation assay, PC3
# Type: cell-based
# Conditions: Table 3, read-out: AB: PC3
# Method: (§1) A representative cell-proliferation assay protocol using Alamar Blue dye (stored at 4° C., use 20 ul per well) is described hereafter.
# (§2) 96-Well Plate Setup and Compound Treatment
# (§3) a. Split and trypsinize cells.
# (§4) b. Count cells using hemocytometer.
# (§5) c. Plate 4,000-5,000 cells per well in 100 μl of medium and seed into a 96-well plate according to the following plate layout. Add cell culture medium only to wells B10 to B12. Wells B1 to B9 have cells but no compound added.
# (§6) d. Add 100 μl of 2× drug dilution to each well in a concentration shown in the plate layout above. At the same time, add 100 μl of media into the control wells (wells 1310 to B12). Total volume is 200 μl/well.
# (§7) e. Incubate four (4) days at 37° C., 5% CO2 in a humidified incubator.
# (§8) f. Add 20 μl Alamar Blue reagent to each well.
# (§9) g. Incubate for four (4) hours at 37° C., 5% CO2 in a humidified incubator.
# (§10) h. Record fluorescence at an excitation wavelength of 544 nm and emission wavelength of 590 nm using a microplate reader.
# (§11) In the assays, cells are cultured with a test compound for approximately four days, the dye is then added to the cells and fluorescence of […] dye is detected after approximately four hours. Different types of cells can be utilized in the assays (e.g., HCT-116 human colorectal carcinoma cells, PC-3 human prostatic cancer cells and MiaPaca human pancreatic carcinoma cells).
row,IC50 [µM],SMILES
1,> 30,O=C1Nc2ccc(Cl)cc2/C1=C\c1ccc(-c2ccc(OCCN3CCOCC3)cc2)o1
2,9.62,O=C1Nc2ccc(Cl)cc2/C1=C\c1ccc(-c2cccc(C(=O)N3CCCNCC3)c2)o1
3,> 30,NC(=O)c1ccc(-c2ccc(/C=C3\C(=O)Nc4ccc(Cl)cc43)o2)cc1
4,> 30,O=C1Nc2ccc(Cl)cc2/C1=C/c1ccc(-c2cnn(CCN3CCOCC3)c2)o1

# The next lines start with the compound.
row,SMILES,IC50 [µM]
1,NC(=O)c1cccc(-c2ccc(/C=C3\C(=O)Nc4ccc(Cl)cc43)o2)c1,> 30
2,CS(=O)(=O)Nc1ccc(-c2ccc(/C=C3\C(=O)Nc4ccc(Cl)cc43)o2)cc1,11
3,O=C1Nc2ccc(Cl)cc2/C1=C/c1ccc(-c2ccc3cc(O)ccc3c2)o1,12
4,O=C1Nc2ccc(Cl)cc2/C1=C\c1ccc(-c2cccc(-c3nnc[nH]3)c2)o1,> 30
5,CC(=O)Nc1cccc(-c2ccc(/C=C3\C(=O)Nc4ccc(Cl)cc43)o2)c1,2.68
6,CC/C(=C1\C(=O)Nc2ccc(Cl)cc21)c1ccc(-c2cccc(C(=O)N3CCCN(C)CC3)c2)o1,> 30

# Same assay, conditions: Table 5, read-out: AB: PC3 IC50
row,IC50 [µM],SMILES
1,> 10,O=C1Nc2ccccc2/C1=C\c1cc(-c2cccc(C(=O)NCc3ccncc3)c2)co1
2,7,CN1CCCC(NC(=O)c2cccc(-c3coc(/C=C4/C(=O)Nc5ccc(F)cc54)c3)c2)C1 (centres unmarked) [drawing 249]

# Tested on: MDAMB-231
# Assay: Alamar Blue cell proliferation assay, MDAMB-231
# Type: cell-based
# Conditions: Homo sapiens, MDA-MB-231, Table 3, read-out: AB: MDAMB-231
# Method: as §1, §2, §3, §4, §5, §6, §7, §8, §9, §10, §11
row,IC50 [µM],SMILES
1,> 10,O=C1Nc2ccc(Cl)cc2/C1=C\c1ccc(-c2ccc(OCCN3CCOCC3)cc2)o1
2,3.15,O=C1Nc2ccc(Cl)cc2/C1=C\c1ccc(-c2cccc(C(=O)N3CCCNCC3)c2)o1
3,> 10,NC(=O)c1ccc(-c2ccc(/C=C3\C(=O)Nc4ccc(Cl)cc43)o2)cc1
4,> 10,O=C1Nc2ccc(Cl)cc2/C1=C/c1ccc(-c2cnn(CCN3CCOCC3)c2)o1

# More lines, now with the values behind:
row,SMILES,IC50 [µM]
1,NC(=O)c1cccc(-c2ccc(/C=C3\C(=O)Nc4ccc(Cl)cc43)o2)c1,> 10
2,CS(=O)(=O)Nc1ccc(-c2ccc(/C=C3\C(=O)Nc4ccc(Cl)cc43)o2)cc1,> 10
3,O=C1Nc2ccc(Cl)cc2/C1=C/c1ccc(-c2ccc3cc(O)ccc3c2)o1,> 10
4,O=C1Nc2ccc(Cl)cc2/C1=C\c1ccc(-c2cccc(-c3nnc[nH]3)c2)o1,> 10
5,CC(=O)Nc1cccc(-c2ccc(/C=C3\C(=O)Nc4ccc(Cl)cc43)o2)c1,> 10
6,CC/C(=C1\C(=O)Nc2ccc(Cl)cc21)c1ccc(-c2cccc(C(=O)N3CCCN(C)CC3)c2)o1,> 10

# Tested on: MiaPaca human pancreatic carcinoma cells
# Assay: Alamar Blue cell proliferation assay, MiaPaCa
# Type: cell-based
# Conditions: MIA PaCa-2, Table 3, read-out: AB: MiaPaCa
# Method: as §1, §2, §3, §4, §5, §6, §7, §8, §9, §10, §11
row,IC50 [µM],SMILES
1,> 10,O=C1Nc2ccc(Cl)cc2/C1=C\c1ccc(-c2ccc(OCCN3CCOCC3)cc2)o1
2,0.815,O=C1Nc2ccc(Cl)cc2/C1=C\c1ccc(-c2cccc(C(=O)N3CCCNCC3)c2)o1
3,> 10,NC(=O)c1ccc(-c2ccc(/C=C3\C(=O)Nc4ccc(Cl)cc43)o2)cc1
4,> 10,O=C1Nc2ccc(Cl)cc2/C1=C/c1ccc(-c2cnn(CCN3CCOCC3)c2)o1

# More lines, now with the values behind:
row,SMILES,IC50 [µM]
1,NC(=O)c1cccc(-c2ccc(/C=C3\C(=O)Nc4ccc(Cl)cc43)o2)c1,> 10
2,CS(=O)(=O)Nc1ccc(-c2ccc(/C=C3\C(=O)Nc4ccc(Cl)cc43)o2)cc1,> 10
3,O=C1Nc2ccc(Cl)cc2/C1=C/c1ccc(-c2ccc3cc(O)ccc3c2)o1,> 10
4,O=C1Nc2ccc(Cl)cc2/C1=C\c1ccc(-c2cccc(-c3nnc[nH]3)c2)o1,> 10
5,CC(=O)Nc1cccc(-c2ccc(/C=C3\C(=O)Nc4ccc(Cl)cc43)o2)c1,> 10
6,CC/C(=C1\C(=O)Nc2ccc(Cl)cc21)c1ccc(-c2cccc(C(=O)N3CCCN(C)CC3)c2)o1,0.302

# Same assay, conditions: MIA PaCa-2, Table 5, read-out: AB: MiaPaCa IC50
row,IC50 [µM],SMILES
1,> 10,O=C1Nc2ccccc2/C1=C\c1cc(-c2cccc(C(=O)NCc3ccncc3)c2)co1
2,> 10,CN1CCCC(NC(=O)c2cccc(-c3coc(/C=C4/C(=O)Nc5ccc(F)cc54)c3)c2)C1 (centres unmarked) [drawing 249]

# Tested on: K-562
# Assay: Alamar Blue cell proliferation assay, K-562
# Type: cell-based
# Conditions: Homo sapiens, K562, Table 3, read-out: AB: K-562
# Method: as §1, §2, §3, §4, §5, §6, §7, §8, §9, §10, §11
row,IC50 [µM],SMILES
1,> 10,O=C1Nc2ccc(Cl)cc2/C1=C\c1ccc(-c2ccc(OCCN3CCOCC3)cc2)o1
2,0.342,O=C1Nc2ccc(Cl)cc2/C1=C\c1ccc(-c2cccc(C(=O)N3CCCNCC3)c2)o1
3,> 10,NC(=O)c1ccc(-c2ccc(/C=C3\C(=O)Nc4ccc(Cl)cc43)o2)cc1
4,2.32,O=C1Nc2ccc(Cl)cc2/C1=C/c1ccc(-c2cnn(CCN3CCOCC3)c2)o1

# More lines, now with the values behind:
row,SMILES,IC50 [µM]
1,NC(=O)c1cccc(-c2ccc(/C=C3\C(=O)Nc4ccc(Cl)cc43)o2)c1,> 10
2,CS(=O)(=O)Nc1ccc(-c2ccc(/C=C3\C(=O)Nc4ccc(Cl)cc43)o2)cc1,2.88
3,O=C1Nc2ccc(Cl)cc2/C1=C/c1ccc(-c2ccc3cc(O)ccc3c2)o1,> 10
4,O=C1Nc2ccc(Cl)cc2/C1=C\c1ccc(-c2cccc(-c3nnc[nH]3)c2)o1,> 10
5,CC(=O)Nc1cccc(-c2ccc(/C=C3\C(=O)Nc4ccc(Cl)cc43)o2)c1,> 10
6,CC/C(=C1\C(=O)Nc2ccc(Cl)cc21)c1ccc(-c2cccc(C(=O)N3CCCN(C)CC3)c2)o1,0.153

# Same assay, conditions: Homo sapiens, K562, Table 5, read-out: AB: K-562 IC50
row,IC50 [µM],SMILES
1,> 10,O=C1Nc2ccccc2/C1=C\c1cc(-c2cccc(C(=O)NCc3ccncc3)c2)co1
2,3.12,CN1CCCC(NC(=O)c2cccc(-c3coc(/C=C4/C(=O)Nc5ccc(F)cc54)c3)c2)C1 (centres unmarked) [drawing 249]

# Tested on: HCT-116 human colorectal carcinoma cells
# Assay: Alamar Blue cell proliferation assay, HCT-116
# Type: cell-based
# Conditions: Table 5, read-out: AB: HCT-116 IC50
# Method: as §1, §2, §3, §4, §5, §6, §7, §8, §9, §10, §11
row,IC50 [µM],SMILES
1,> 10,O=C1Nc2ccccc2/C1=C\c1cc(-c2cccc(C(=O)NCc3ccncc3)c2)co1
2,4.65,CN1CCCC(NC(=O)c2cccc(-c3coc(/C=C4/C(=O)Nc5ccc(F)cc54)c3)c2)C1 (centres unmarked) [drawing 249]

# Target: recombinant PIM-1 (Homo sapiens, UniProt P11309)
# Assay: PIM-1 kinase assay (radiometric, 15 uM ATP, DMSO 4%)
# Type: biochemical
# Conditions: Table 3; DMSO 4%; read-out: PIM1: IC50 (DMSO 4%)
# Sequence of recombinant PIM-1 (P11309 whole entry): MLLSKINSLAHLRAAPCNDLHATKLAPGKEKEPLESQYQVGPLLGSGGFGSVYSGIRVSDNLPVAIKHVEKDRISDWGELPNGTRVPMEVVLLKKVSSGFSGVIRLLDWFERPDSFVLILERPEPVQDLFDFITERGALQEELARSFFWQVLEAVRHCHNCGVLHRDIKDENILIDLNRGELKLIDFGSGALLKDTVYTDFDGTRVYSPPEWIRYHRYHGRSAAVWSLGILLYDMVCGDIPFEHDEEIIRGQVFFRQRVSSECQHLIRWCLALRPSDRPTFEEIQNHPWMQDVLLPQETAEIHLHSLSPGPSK
row,IC50 [nM],SMILES
1,< 1000,O=C1Nc2ccc(Cl)cc2/C1=C\c1ccc(-c2ccc(OCCN3CCOCC3)cc2)o1
2,< 1000,NC(=O)c1ccc(-c2ccc(/C=C3\C(=O)Nc4ccc(Cl)cc43)o2)cc1
3,< 1000,O=C1Nc2ccc(Cl)cc2/C1=C/c1ccc(-c2cnn(CCN3CCOCC3)c2)o1

# The remaining lines, values behind:
row,SMILES,IC50 [nM]
1,NC(=O)c1cccc(-c2ccc(/C=C3\C(=O)Nc4ccc(Cl)cc43)o2)c1,< 1000
2,CS(=O)(=O)Nc1ccc(-c2ccc(/C=C3\C(=O)Nc4ccc(Cl)cc43)o2)cc1,< 1000
3,O=C1Nc2ccc(Cl)cc2/C1=C/c1ccc(-c2ccc3cc(O)ccc3c2)o1,< 1000
4,O=C1Nc2ccc(Cl)cc2/C1=C\c1ccc(-c2cccc(-c3nnc[nH]3)c2)o1,< 1000
5,CC(=O)Nc1cccc(-c2ccc(/C=C3\C(=O)Nc4ccc(Cl)cc43)o2)c1,< 1000

# Same assay, conditions: Table 5; compound at 500 nM; read-out: PIM1: % inh 500 nM
row,inhibition at 0.5 µM [%],SMILES
1,-4.22,O=C1Nc2ccccc2/C1=C\c1cc(-c2cccc(C(=O)NCc3ccncc3)c2)co1
2,6.11,CN1CCCC(NC(=O)c2cccc(-c3coc(/C=C4/C(=O)Nc5ccc(F)cc54)c3)c2)C1 (centres unmarked) [drawing 249]

# Tested on: MV-4-11
# Assay: Alamar Blue cell proliferation assay, MV-4-11
# Type: cell-based
# Conditions: Homo sapiens, MV4-11, Table 3, read-out: AB: MV-4-11
# Method: as §1, §2, §3, §4, §5, §6, §7, §8, §9, §10, §11
row,IC50 [nM],SMILES
1,> 10000,O=C1Nc2ccc(Cl)cc2/C1=C\c1ccc(-c2ccc(OCCN3CCOCC3)cc2)o1
2,198,O=C1Nc2ccc(Cl)cc2/C1=C/c1ccc(-c2cnn(CCN3CCOCC3)c2)o1

# The remaining lines, values behind:
row,SMILES,IC50 [nM]
1,NC(=O)c1cccc(-c2ccc(/C=C3\C(=O)Nc4ccc(Cl)cc43)o2)c1,1910
2,CS(=O)(=O)Nc1ccc(-c2ccc(/C=C3\C(=O)Nc4ccc(Cl)cc43)o2)cc1,2220
3,O=C1Nc2ccc(Cl)cc2/C1=C/c1ccc(-c2ccc3cc(O)ccc3c2)o1,189
4,O=C1Nc2ccc(Cl)cc2/C1=C\c1ccc(-c2cccc(-c3nnc[nH]3)c2)o1,> 10000
5,CC(=O)Nc1cccc(-c2ccc(/C=C3\C(=O)Nc4ccc(Cl)cc43)o2)c1,748
6,CC/C(=C1\C(=O)Nc2ccc(Cl)cc21)c1ccc(-c2cccc(C(=O)N3CCCN(C)CC3)c2)o1,109

# Same assay, conditions: Homo sapiens, MV4-11, Table 5, read-out: AB: MV-4-11 IC50
row,IC50 [nM],SMILES
1,168,O=C1Nc2ccccc2/C1=C\c1cc(-c2cccc(C(=O)NCc3ccncc3)c2)co1
2,1010,CN1CCCC(NC(=O)c2cccc(-c3coc(/C=C4/C(=O)Nc5ccc(F)cc54)c3)c2)C1 (centres unmarked) [drawing 249]
